Assay [1] concerns the target EGFR (UniProt P00533).
The test system of assay [2] is MAPK14, Q16539 [p38 (T106M) Inhibition]. Nature of the assay: p38 (T106M) Inhibition.
The subject of assay [3] is CDK2 (sprague-dawley rat). The settings on record: dose or concentration not given here.
In assay [4] the target is EGFR (murine) (UniProt P00533). The settings on record: nih3t3.
Assay [5] has as its system MAPK14 (sprague-dawley rat). Nature of the assay: p38 Activation. The settings on record: myocytes.
Assay [6] addresses EGFR (human) (UniProt P00533). Particulars: kb.
In assay [7] the target is MAPK14 (human) (UniProt Q16539). Nature of the assay: IL-6 Inhibition. The settings on record: hiv-1.
In assay [8] the target is EGFR (human) (UniProt P00533). Particulars: a431.
Assay [9] has as its target EGFR (human) (UniProt P00533). The settings on record: A431.
For assay [10], the target named is MAPK14 (UniProt Q16539). Nature of the assay: p38-alpha2 Inhibition (E. coli). Particulars: concentration not given here.
The target in assay [11] is EGFR (UniProt P00533). Particulars: concentration not given here.
In assay [12] the target is MAPK14 (human) (UniProt Q16539). In words: MAPK14 Kinase Inhibition.
For assay [13] the target is unchanged. In words: TNFalpha Inhibition. Particulars: pbmc.
Assay [14] concerns the target MAPK14 (UniProt Q16539). In words: MAPK14 Binding Inhibition.
For assay [15], the target named is MAPK14 (human) (UniProt Q16539). In words: Activation of p38 in Human Platelets.
The target of assay [16] is EGFR (UniProt P00533). The source holds these as a separate data set.
For assay [17], the target named is EGFR (UniProt P00533). The source holds these as a separate data set.
Assay [18] deals with EGFR (UniProt P00533). The source holds these as a separate data set.
For assay [19], the target named is EGFR (UniProt P00533). This is another data set of the same source.
The target in assay [20] is EGFR (UniProt P00533). This is another data set of the same source.
The target of assay [21] is EGFR (murine) (UniProt P00533). The settings on record: balb/mk cells.
The target of assay [22] is EGFR (UniProt P00533). This is another data set of the same source.
For assay [23], the target named is EGFR (human) (UniProt P00533). Particulars: hs-27.
Assay [24] deals with PIK3CA (UniProt P42336).
The target of assay [25] is EGFR (human) (UniProt P00533).
Assay [26] deals with EGFR (human) (UniProt P00533). The settings on record: lox-imvi,malme-3m,sk-mel-5.
The target of assay [27] is EGFR (human) (UniProt P00533). This is another data set of the same source.
Assay [28] concerns the target EGFR (human) (UniProt P00533). The settings on record: ovcar-8,sk-ov-3,ovcar-5,ovcar-4.
Assay [29] has as its target EGFR (human) (UniProt P00533). Particulars: a431. The source holds these as a separate data set.
The target of assay [30] is EGFR (UniProt P00533). The source holds these as a separate data set.
The subject of assay [31] is MAPK14 (Lewis rat). Nature of the assay: SCW-induced Arthritis (Lewis Rat).
In assay [32] the target is EGFR (UniProt P00533). This is another data set of the same source.
Assay [33] deals with EGFR (UniProt P00533). This is another data set of the same source.
The target in assay [34] is EGFR (UniProt P00533). This is another data set of the same source.

Values joined by “and” are separate entries in the source; they are usually repeats but may differ in a detail not shown here. Identical values can stand only once.

Sequence of EGFR (human) (P00533 whole entry, looked up): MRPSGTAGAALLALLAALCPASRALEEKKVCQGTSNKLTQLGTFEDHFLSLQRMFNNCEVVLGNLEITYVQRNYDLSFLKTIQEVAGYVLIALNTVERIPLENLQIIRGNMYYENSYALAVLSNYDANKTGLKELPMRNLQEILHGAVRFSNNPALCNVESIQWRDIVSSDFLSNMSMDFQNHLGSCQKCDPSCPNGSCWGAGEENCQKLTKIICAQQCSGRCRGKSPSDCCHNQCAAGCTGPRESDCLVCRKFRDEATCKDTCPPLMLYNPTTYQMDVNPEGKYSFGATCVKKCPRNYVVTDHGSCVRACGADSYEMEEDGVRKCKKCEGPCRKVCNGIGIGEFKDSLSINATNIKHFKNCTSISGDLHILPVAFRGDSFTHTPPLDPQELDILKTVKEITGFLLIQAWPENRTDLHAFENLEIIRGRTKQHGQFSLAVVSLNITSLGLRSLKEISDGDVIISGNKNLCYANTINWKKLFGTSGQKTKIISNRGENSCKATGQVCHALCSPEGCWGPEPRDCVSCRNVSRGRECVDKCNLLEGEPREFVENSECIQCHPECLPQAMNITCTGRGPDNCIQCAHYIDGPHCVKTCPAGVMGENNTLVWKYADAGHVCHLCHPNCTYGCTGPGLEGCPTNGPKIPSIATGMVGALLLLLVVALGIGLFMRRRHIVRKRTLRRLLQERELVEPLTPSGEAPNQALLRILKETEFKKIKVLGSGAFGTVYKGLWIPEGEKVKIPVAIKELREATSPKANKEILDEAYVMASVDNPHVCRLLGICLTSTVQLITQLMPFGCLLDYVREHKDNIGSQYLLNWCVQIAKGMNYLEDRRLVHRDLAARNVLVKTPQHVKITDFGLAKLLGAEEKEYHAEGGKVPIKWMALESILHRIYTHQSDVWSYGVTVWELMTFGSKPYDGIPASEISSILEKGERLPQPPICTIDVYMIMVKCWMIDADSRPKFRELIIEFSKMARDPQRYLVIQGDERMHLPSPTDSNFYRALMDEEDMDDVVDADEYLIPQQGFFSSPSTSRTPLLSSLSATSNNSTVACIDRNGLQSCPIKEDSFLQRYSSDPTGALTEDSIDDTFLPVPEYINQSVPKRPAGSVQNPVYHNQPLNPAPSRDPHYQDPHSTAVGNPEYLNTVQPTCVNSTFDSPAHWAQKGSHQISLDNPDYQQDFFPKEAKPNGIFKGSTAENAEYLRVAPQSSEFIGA
Sequence of EGFR (P00533 whole entry, looked up): as above
Sequence of MAPK14 (human) (Q16539 whole entry, looked up): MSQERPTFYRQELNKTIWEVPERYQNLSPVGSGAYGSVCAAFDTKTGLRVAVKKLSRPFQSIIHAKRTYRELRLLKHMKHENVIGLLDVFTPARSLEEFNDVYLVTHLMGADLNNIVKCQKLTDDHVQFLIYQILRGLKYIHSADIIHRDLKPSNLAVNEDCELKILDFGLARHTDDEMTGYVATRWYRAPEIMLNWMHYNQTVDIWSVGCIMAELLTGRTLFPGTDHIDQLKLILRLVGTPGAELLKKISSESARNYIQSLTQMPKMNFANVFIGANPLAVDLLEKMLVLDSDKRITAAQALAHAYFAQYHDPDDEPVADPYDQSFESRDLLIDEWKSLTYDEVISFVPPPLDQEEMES
Sequence of EGFR (murine) (P00533 whole entry, looked up): as the sequence (P00533 whole entry, looked up) above
Sequence of MAPK14 (Q16539 whole entry, looked up): as the sequence (Q16539 whole entry, looked up) above
Sequence of PIK3CA (P42336 whole entry, looked up): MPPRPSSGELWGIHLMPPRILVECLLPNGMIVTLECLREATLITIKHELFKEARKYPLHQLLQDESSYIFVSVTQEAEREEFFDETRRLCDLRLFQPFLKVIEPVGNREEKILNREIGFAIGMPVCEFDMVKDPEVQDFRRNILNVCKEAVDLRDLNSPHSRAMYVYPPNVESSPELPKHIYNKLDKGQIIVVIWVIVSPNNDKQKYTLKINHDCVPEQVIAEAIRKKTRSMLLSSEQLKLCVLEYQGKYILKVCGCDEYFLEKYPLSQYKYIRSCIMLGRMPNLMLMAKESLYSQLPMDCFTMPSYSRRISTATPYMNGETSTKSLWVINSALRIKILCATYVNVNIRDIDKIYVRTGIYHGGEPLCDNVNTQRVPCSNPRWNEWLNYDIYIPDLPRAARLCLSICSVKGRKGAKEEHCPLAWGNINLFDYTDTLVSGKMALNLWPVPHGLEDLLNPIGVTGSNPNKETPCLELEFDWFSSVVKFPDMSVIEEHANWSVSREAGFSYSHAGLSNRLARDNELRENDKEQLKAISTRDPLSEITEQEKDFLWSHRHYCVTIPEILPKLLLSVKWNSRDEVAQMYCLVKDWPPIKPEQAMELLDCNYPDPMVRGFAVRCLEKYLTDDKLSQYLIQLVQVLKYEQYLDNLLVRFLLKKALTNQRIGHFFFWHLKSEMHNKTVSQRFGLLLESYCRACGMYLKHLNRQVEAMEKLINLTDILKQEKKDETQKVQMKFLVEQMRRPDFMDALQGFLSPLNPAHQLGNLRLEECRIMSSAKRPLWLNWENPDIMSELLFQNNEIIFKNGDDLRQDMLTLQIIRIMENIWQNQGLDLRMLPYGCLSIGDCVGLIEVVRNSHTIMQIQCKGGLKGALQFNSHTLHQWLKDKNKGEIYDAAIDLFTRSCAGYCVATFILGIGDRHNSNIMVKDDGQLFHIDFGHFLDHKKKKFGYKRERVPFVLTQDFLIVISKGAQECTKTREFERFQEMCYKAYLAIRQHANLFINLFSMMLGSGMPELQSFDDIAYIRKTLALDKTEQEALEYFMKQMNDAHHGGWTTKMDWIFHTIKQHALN

As to `O=[N+]([O-])c1cccc(Cl)c1-c1nc(-c2ccncc2)c(-c2ccc(Cl)cc2)[nH]1`, the IC50 (in general, the point on the concentration scale where inhibition reaches its midpoint) in assay [1] turned out to be 290 nM.

Consider `Fc1ccc(-c2ncn(C3CCNCC3)c2-c2ccncc2)cc1`, for which the inhibition (as a rule, the share of the control response that was lost under treatment) in assay [2] worked out at 0%.

`CN1CC[C@@H](c2c(O)cc(O)c3c(=O)cc(-c4ccccc4Cl)oc23)[C@@H](O)C1` showed a response in [3] of 4.2%.

As for `CC(C)(C)c1cc(/C=C(\C#N)S(=O)(=O)Cc2cccc(C(F)(F)F)c2)cc(C(C)(C)C)c1O`, in assay [4], the IC50 was more than 100000 nM.

In turn, `COc1ccc(C[C@H]2NC[C@H](O)[C@H]2OC(C)=O)cc1` displayed an activation in assay [5] of 6.2.

Take `Fc1ccc(Nc2ncnc3cnc(NN4CCOCC4)nc23)cc1Cl`: the IC50 in assay [6] was 100 nM.

Turning to `Cn1c2ccccc2c2c3c(c4c5ccccc5n(CCC#N)c4c21)CNC3=O`, the IC50 in [7] was less than 25 nM.

`COc1cc2cc3ncc(C#N)c(Nc4ccc(F)c(Cl)c4)c3cc2cc1OC` registered an IC50 in assay [8] of 680 nM.

In assay [9], `Cn1c(=O)c(-c2c(Cl)cccc2Cl)cc2cnc(N)cc21` returned an IC50 of less than 50000 nM.

Molecule `COC(=O)c1sc(C(C)(C)C)cc1NC(=O)Nc1ccc(C(N)=O)cc1` showed an inhibition in assay [10] of 23%.

As for `COc1cccc2sc3c(Nc4cccc(Br)c4)ncnc3c12`, the inhibition in assay [11] is 36%.

As for `CN(C)CCCN(C)c1ccc2ncn(-c3cccc(NC(=O)c4ccnc(N5CCOCC5)c4)c3)c(=O)c2c1`, the figures for the IC50 in [12] and in assay [13] were 50 nM and 5000 nM, respectively.

In turn, `COc1cc(-c2c(-c3ccc(F)cc3)ncn2C2CCNCC2)ccn1` yielded an IC50 in assay [14] of less than 50000 nM.

With `CCCCC/C=C\C/C=C\C/C=C\C/C=C\CCCC(=O)O`, in [15], the phosphorylation is 254 cpm and 231 cpm.

As to `COc1cc(Nc2ccnc(Nc3ccc(COc4ccccc4)cc3)n2)cc(OC)c1OC`, the IC50 in assay [16] is not below 10000 nM.

For `O=C(O)c1cc(/C=C/c2cc(O)ccc2O)ccc1O`, in [17], the IC50 is 2000 nM.

Molecule `O=C(/C=C/c1ccc(O)c(O)c1)c1ccc(O)cc1O` displayed an IC50 in assay [18] of 16000 nM.

Consider `c1ccc2c(c1)CCc1c-2n[nH]c1-c1ccncc1`, for which the IC50 in [19] and in [20] was more than 50000 nM each time.

With `Cc1ccc(NC(=O)c2ccc(CN3CCN(C)CC3)cc2)cc1Nc1nccc(-c2cccnc2)n1`, the IC50 in [21] was 12700 nM.

Molecule `CN(C)C[C@H]1CCn2c(c(C3=C(c4cn(C)c5ccccc45)C(=O)NC3=O)c3ccccc32)C1` yielded an IC50 in assay [22] of more than 100000 nM.

Regarding `C=CC(=O)Nc1ccc2c(Nc3cccc(Br)c3)ncnc2c1`, the IC50 in [23] turned out to be 6.4 nM. This lies in the single-digit nanomolar range.

`O=c1c(O)c(-c2ccc(O)c(O)c2)oc2cc(O)cc(O)c12`: in assay [24], the IC50 is 3800 nM.

Regarding `CNc1cc2ncnc(Nc3cccc(Br)c3)c2cc1N`, the IC50 was in the range of 1000 to 4360 nM in [25]; 1000 to 10000 nM in [26]; 0.57 to 1.9 nM in assay [27]; 8.32 to 6920 nM in assay [28]; 39.8 to 1580 nM in assay [29].

`O=C(Nc1cc2ccccc2cn1)c1ccccc1NCc1ccncc1` registered an IC50 in [30] of more than 10000 nM.

As for `CC1(C(=O)N2CCOCC2)COC(c2nc(-c3ccc(F)cc3)c(-c3ccnc(NC4CC4)n3)[nH]2)OC1` (centres undefined), the AUC in assay [31] was 2 and 2.1 and 3.3.

With `COc1cc(O)c2c(=O)c(-c3cccc(Cl)c3)cn(CC(N)=O)c2c1`, in assay [32], the IC50 was found to be 23 nM.

The molecule `CC[C@@H]1CC(=O)c2c(cc(O)c3c2C(=O)c2cccc(OC)c2C3=O)C1` yielded an IC50 in [33] of 2110 nM. This lies in the single-digit micromolar range.

As for `C[C@@]12CCC(=O)c3coc(c31)C(=O)c1cc3c(cc12)C(=O)C=CC3=O`, the IC50 in [34] was found to be 19000 nM.

The values are drawn from the Kinase Knowledgebase extract (Sharma et al. 2016).
